Measurements: paper PMC11313180 (International Journal of Molecular Sciences, 2024)

Key:
HDAC = conditions: up to 500 µM (max. concentration tested); ref [21]; cited from earlier work
[1] = system: caspase 3/7 in T47D cells; assay: Caspase 3/7 activation assay, T47D; assay type: cell-based, human; conditions: 24 h; 1 µM exemestane, 0.5 mM or 1 mM (R)-α-lipoic acid
Protocol: (§1) To analyze the compound-induced activation of capases 3 and 7, the CellEvent caspase 3/7 green detection reagent (Thermo Scientific, Wesel, Germany) was used according to the manufacturer’s instructions. […] After 24 h incubation, medium was removed, and cells were stained with 50 µL of CellEvent caspase 3/7 green detection reagent (2 µM in PBS supplemented with 5% heat-inactivated FBS). Cells were incubated for 30 min at 37 °C in a humidified incubator before imaging by using the Thermo Fisher ArrayScan XTI high content screening (HCS) system with a 10× magnification (Thermo Scientific). Hoechst 33342 was added for nuclei staining.

HDAC8 = biological target: T1, HDAC8 (Homo sapiens, UniProt Q9BY41); assay: Enzyme HDAC inhibition assay, HDAC8; conditions: read-out: IC50 HDAC 8; IC50 ± SEM; three experiments in duplicates
T1 sequence (Q9BY41 1-377): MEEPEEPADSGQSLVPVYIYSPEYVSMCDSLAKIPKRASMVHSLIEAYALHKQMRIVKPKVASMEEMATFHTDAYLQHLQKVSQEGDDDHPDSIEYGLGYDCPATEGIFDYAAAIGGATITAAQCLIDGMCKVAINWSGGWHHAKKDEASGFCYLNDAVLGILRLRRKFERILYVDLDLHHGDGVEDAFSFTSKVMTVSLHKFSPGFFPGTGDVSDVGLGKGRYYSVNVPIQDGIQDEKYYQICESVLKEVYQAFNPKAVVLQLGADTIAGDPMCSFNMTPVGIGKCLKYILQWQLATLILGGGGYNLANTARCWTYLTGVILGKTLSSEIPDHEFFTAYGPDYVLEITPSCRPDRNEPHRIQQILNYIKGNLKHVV
Text: All human recombinant enzymes were purchased from Reaction Biology Corp. (Malvern, PA, USA).

[2] = system: caspase 3/7 in MCF-7 cells; assay: Caspase 3/7 activation assay, MCF-7; assay type: cell-based, human; conditions: 24 h; 1 µM exemestane, 0.5 mM or 1 mM (R)-α-lipoic acid
Protocol: as §1

T47D [3] = assay: Long-term (10 days) live/dead proliferation assay, calcein AM and Hoechst 33342, T47D; assay type: cell-based, human; conditions: 1 µM exemestane, 1 mM (R)-α-lipoic acid
Protocol: (§2) Cells were seeded on day one in 96-well plates. […] Then, cells were stained with calcein AM (Millipore Corporation, Billerica, MA, USA) and Hoechst 33342 (Tocris Bioscience, Bristol, UK) for 30 min and fluorescence images monitored by Leica DMi8 Thunder Imager (Leica Microsystems CMS GmbH, Wetzlar, Germany). Five images per well were monitored randomly. Calcein AM- and Hoechst 33342-stained area of the images (i.e., live proliferating cells) were evaluated.

MCF-7 [4] = assay: Mitochondrial potential assay (TMRE), MCF-7; assay type: cell-based, human; conditions: 1 mM; 2 h, 6 h, 24 h, 48 h
Protocol: The analysis of mitochondrial potential was carried out as previously described with minor modifications concerning fluorescence measurement. […] After an incubation time of 2 h, 6 h, 24 h, and 48 h, medium was removed, and cells were washed with PBS and then stained for 30 min at 37 °C with 50 µL staining reagent containing 500 nM tetramethyl rhodamine ethylester as perchlorate (TMRE, BIOTREND chemicals GmbH, Cologne) and Hoechst 33342 (5 µg/mL). A quantity of 20 µM CCCP (carbonyl cyanide-m-chlorophenylhydrazone, Sigma-Aldrich, München, Germany) served as control for mitochondrial potential breakdown. Fluorescence was measured by Leica DMi8 Thunder Imager (Leica Microsystems CMS GmbH, Wetzlar, Germany).

MCF-7 [5] = assay: Long-term (10 days) live/dead proliferation assay, calcein AM and Hoechst 33342, MCF-7; assay type: cell-based, human; conditions: 1 µM exemestane, 1 mM (R)-α-lipoic acid
Protocol: as §2

T47D [6] = assay: Immunoblotting, T47D; assay type: cell-based, human; conditions: 48 h
Protocol: (§3) A quantity of 20 or 40 µg of total protein as well as, from PageRuler Prestained Protein Ladder, 10–180 kDA (Thermo Scientific, Wesel, Germany), were resolved by SDS-Page (12% polyacrylamide gel) and transferred to polyvinylidene fluoride membrane (Millipore Corporation, Billerica, MA, USA). Blots were incubated with primary antibodies against acetylated a -tubulin (Cat. No. sc-23950), a -tubulin (Cat. No. sc-8035) (Santa Cruz Biotechnology, Heidelberg, Germany), acetyl histone h3 (Cat. No. 39140) and histone H3 (Cat. No. NB100-1669), ß-actine (Cat. No. sc-47778), p21 (AF1047), c-myk (Cat. No. MAB3696), APAF1 (Cat. No. MAB868), BIM (Cat. No. NBP1-76936), FOXO1 (Cat. No. C29H4), BCL-2 (Cat. No. AF810), and survivin (Cat. No. AF886). After another one-hour incubation with the appropriate HRP-conjugated secondary antibody, proteins were visualized by Intas Imager (Intas, Göttingen, Germany) using luminol reagent (Santa Cruz Biotechnology, Heidelberg, Germany).

MCF-7 [7] = assay: Immunoblotting, MCF-7; assay type: cell-based, human; conditions: 48 h
Protocol: as §3

[8] = 1 mM (R)-α-lipoic acid, 1 µM exemestane

Row | SMILES | HDAC inhibitory activity (HDAC) | caspase 3/7 activation, T47D [1] | IC50 (HDAC8) [µM] | caspase 3/7 activation, MCF-7 [2] | proliferation and doubling time over 10 days, T47D (T47D [3]) | mitochondrial potential and structure (TMRE) (MCF-7 [4]) | proliferation and doubling time over 10 days, MCF-7 (MCF-7 [5]) | expression of APAF-1 and BIM, T47D (T47D [6]) | expression of FOXO1, T47D (T47D [6]) | acetylation of histone H3 and alpha-tubulin (western blot), T47D (T47D [6]; [8]) | expression of p21, T47D (T47D [6]; [8]) | expression of survivin and c-myk, T47D (T47D [6]; [8]) | expression of APAF-1 and BIM, MCF-7 (MCF-7 [7]) | expression of FOXO1, MCF-7 (MCF-7 [7]) | acetylation of histone H3 and alpha-tubulin (western blot), MCF-7 (MCF-7 [7]; [8]) | expression of p21, MCF-7 (MCF-7 [7]; [8]) | expression of survivin and c-myk, MCF-7 (MCF-7 [7]; [8])
1 | O=C(O)CCCC[C@H]1CCSS1 [(S)-α-lipoic acid] | no HDAC inhibitory activity | slightly lower than (R)-α-lipoic acid | 559 ± 71 | slightly lower than (R)-α-lipoic acid |  |  |  |  |  |  |  |  |  |  |  |  | 
2 | O=C(O)CCCC[C@@H]1CCSS1 [(R)-α-lipoic acid] |  |  | 151 ± 33.4 |  | reduced proliferation and increased doubling time strongly | mitochondrial fusion up to 24 h followed by mitochondrial fission and inhibition of proliferation | strong reduction in proliferation and thus increase in doubling time | upregulated | strongly upregulated | increased acetylation of histone and of alpha-tubulin | moderately upregulated | strongly downregulated | upregulated | strongly upregulated | increased acetylation of histone and of alpha-tubulin | moderately upregulated | strongly downregulated
